The target of series [1] is T1, succinyl-CoA:glutarate-CoA transferase (SUGCT) (Homo sapiens, UniProt Q9HAC7, Q255A/K256A).
T1 sequence (Q9HAC7 31-438 Q255A/K256A): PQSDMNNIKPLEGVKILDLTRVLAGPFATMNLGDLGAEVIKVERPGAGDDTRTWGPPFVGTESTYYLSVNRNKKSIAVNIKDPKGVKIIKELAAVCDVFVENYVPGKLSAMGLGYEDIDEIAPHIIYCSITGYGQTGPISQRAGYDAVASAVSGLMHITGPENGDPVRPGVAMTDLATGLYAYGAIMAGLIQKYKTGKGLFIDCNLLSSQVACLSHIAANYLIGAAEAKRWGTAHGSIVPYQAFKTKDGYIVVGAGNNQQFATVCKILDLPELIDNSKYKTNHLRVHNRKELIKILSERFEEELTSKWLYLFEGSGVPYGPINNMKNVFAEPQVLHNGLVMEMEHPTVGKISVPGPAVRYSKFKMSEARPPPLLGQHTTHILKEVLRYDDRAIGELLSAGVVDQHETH
Put plainly: co-crystal structure. In kind it is binding.

Substrate in the series “saturation kinetics”: CC(C)(COP(=O)(O)OP(=O)(O)OC[C@H]1O[C@@H](n2cnc3c(N)ncnc32)[C@H](O)[C@@H]1OP(=O)(O)O)[C@@H](O)C(=O)NCCC(=O)NCCSC(=O)CCCC(=O)O
Put plainly: saturation kinetics. Format: biochemical, Homo sapiens.

Here are results for 2 molecules from article PMC11259535 (ACS chemical biology, 2024).

Where a chain is given by its changes, count along the chain named.

In the case of `CCCCc1nc(Cl)c(C(=O)O)n1Cc1ccc(-c2ccccc2-c2nn[nH]n2)cc1` [losartan carboxylic acid], the co-crystal structure entry in series [1] is “There was unambiguous density for losartan carboxylic acid in one of the four active sites”.

B1: succinyl-CoA:glutarate-CoA transferase (SUGCT) (Homo sapiens) (protein)
chain: T1 sequence (Q9HAC7 31-438 Q255A/K256A) with A225Q, A226K
With B1, the Michaelis constant (Km) in “saturation kinetics” stood at 17.3 µM.

For orientation: Km means the substrate concentration at which the rate is half of its maximum.
